Results reported in ChEMBL document CHEMBL3046566, “In vitro antimycobacterial activity of novel N-(4-(substituted phenyl amino)-6-(pyridin-2-ylamino)-1,3,5-triazin-2-yl)isonicotinohydrazide” (Med Chem Res, 2011).
≈ marks a conversion by molar mass, not a printed value.

How the values were obtained:
[1] = system: Mycobacterium tuberculosis; assay: Growth inhibition of Mycobacterium tuberculosis H37Rv ATCC 27294 at 0.7110 uM by radiometric analysis; format: functional; details: read-out: GI
[2] = system: Mycobacterium tuberculosis; assay: Growth inhibition of Mycobacterium tuberculosis H37Rv ATCC 27294 at 0.1218 uM by radiometric analysis; format: functional; details: read-out: GI
[3] = system: Mycobacterium tuberculosis; assay: Growth inhibition of Mycobacterium tuberculosis H37Rv ATCC 27294 at 0.1229 uM by radiometric analysis; format: functional; details: read-out: GI
[4] = system: Mycobacterium tuberculosis; assay: Antimycobacterial activity against Mycobacterium tuberculosis H37Rv ATCC 27294 by microdilution alamar blue assay; format: functional
[5] = system: Vero; assay: Cytotoxicity against Chlorocebus aethiops (African green monkey) Vero cells up to 62.5 ug/ml after 72 hr by MTT assay; format: cell-based; details: chlorocebus sabaeus
[6] = system: Mycobacterium tuberculosis; assay: Growth inhibition of Mycobacterium tuberculosis H37Rv ATCC 27294 at 0.0311 uM by radiometric analysis; format: functional; details: read-out: GI
[7] = system: Mycobacterium tuberculosis; assay: Growth inhibition of Mycobacterium tuberculosis H37Rv ATCC 27294 at 0.1277 uM by radiometric analysis; format: functional; details: read-out: GI
[8] = system: Mycobacterium tuberculosis; assay: Growth inhibition of Mycobacterium tuberculosis H37Rv ATCC 27294 at 0.0650 uM by radiometric analysis; format: functional; details: read-out: GI
[9] = system: Mycobacterium tuberculosis; assay: Growth inhibition of Mycobacterium tuberculosis H37Rv ATCC 27294 at 0.0614 uM by radiometric analysis; format: functional; details: read-out: GI
[10] = system: Mycobacterium tuberculosis; assay: Growth inhibition of Mycobacterium tuberculosis H37Rv ATCC 27294 at 0.1214 uM by radiometric analysis; format: functional; details: read-out: GI
[11] = system: Mycobacterium tuberculosis; assay: Growth inhibition of Mycobacterium tuberculosis H37Rv ATCC 27294 at 0.1110 uM by radiometric analysis; format: functional; details: read-out: GI
[12] = system: Mycobacterium tuberculosis; assay: Growth inhibition of Mycobacterium tuberculosis H37Rv ATCC 27294 at 0.6890 uM by radiometric analysis; format: functional; details: read-out: GI
[13] = system: Mycobacterium tuberculosis; assay: Growth inhibition of Mycobacterium tuberculosis H37Rv ATCC 27294 at 0.0677 uM by radiometric analysis; format: functional; details: read-out: GI
[14] = system: Mycobacterium tuberculosis; assay: Growth inhibition of Mycobacterium tuberculosis H37Rv ATCC 27294 at 0.0418 uM by radiometric analysis; format: functional; details: read-out: GI
[15] = system: Mycobacterium tuberculosis; assay: Growth inhibition of Mycobacterium tuberculosis H37Rv ATCC 27294 at 0.0211 uM by radiometric analysis; format: functional; details: read-out: GI
[16] = system: Mycobacterium tuberculosis; assay: Growth inhibition of Mycobacterium tuberculosis H37Rv ATCC 27294 at 0.1109 uM by radiometric analysis; format: functional; details: read-out: GI
[17] = system: Mycobacterium tuberculosis; assay: Growth inhibition of Mycobacterium tuberculosis H37Rv ATCC 27294 at 0.1127 uM by radiometric analysis; format: functional; details: read-out: GI
[18] = system: Mycobacterium tuberculosis; assay: Growth inhibition of Mycobacterium tuberculosis H37Rv ATCC 27294 at 0.0550 uM by radiometric analysis; format: functional; details: read-out: GI
[19] = system: Mycobacterium tuberculosis; assay: Growth inhibition of Mycobacterium tuberculosis H37Rv ATCC 27294 at 0.0250 uM by radiometric analysis; format: functional; details: read-out: GI
[20] = system: Mycobacterium tuberculosis; assay: Growth inhibition of Mycobacterium tuberculosis H37Rv ATCC 27294 at 0.1211 uM by radiometric analysis; format: functional; details: read-out: GI

O=C(NNc1nc(Nc2ccccc2)nc(Nc2ccccn2)n1)c1ccncc1
inhibition of growth at 0.711 µM [1]: 71%

Cc1cccc(Nc2nc(NNC(=O)c3ccncc3)nc(Nc3ccccn3)n2)c1
inhibition of growth at 0.1218 µM [2]: 74%

O=C(NNc1nc(Nc2ccccn2)nc(Nc2ccccc2O)n1)c1ccncc1
inhibition of growth at 0.1229 µM [3]: 71%

O=C(NNc1nc(Nc2ccccn2)nc(Nc2c(Cl)cccc2Cl)n1)c1ccncc1
MIC [4]: 4.69 µg/mL (≈ 10 µM) | Activity [5]: Non-toxic | inhibition of growth at 0.0311 µM [6]: 91%

O=C(NNc1nc(Nc2ccc(O)cc2)nc(Nc2ccccn2)n1)c1ccncc1
inhibition of growth at 0.1277 µM [7]: 77%

O=C(NNc1nc(Nc2ccccn2)nc(Nc2ccccc2Cl)n1)c1ccncc1
inhibition of growth at 0.065 µM [8]: 80%

O=C(NNc1nc(Nc2ccccn2)nc(Nc2ccc(Cl)cc2Cl)n1)c1ccncc1
inhibition of growth at 0.0614 µM [9]: 92% | MIC [4]: 5.92 µg/mL (≈ 12.6 µM) | Activity [5]: Non-toxic

O=C(NNc1nc(Nc2ccccn2)nc(Nc2ccccc2[N+](=O)[O-])n1)c1ccncc1
inhibition of growth at 0.1214 µM [10]: 67%

Cc1ccccc1Nc1nc(NNC(=O)c2ccncc2)nc(Nc2ccccn2)n1
inhibition of growth at 0.111 µM [11]: 71%

COc1cccc(Nc2nc(NNC(=O)c3ccncc3)nc(Nc3ccccn3)n2)c1
inhibition of growth at 0.689 µM [12]: 83%

COc1ccccc1Nc1nc(NNC(=O)c2ccncc2)nc(Nc2ccccn2)n1
inhibition of growth at 0.0677 µM [13]: 81%

NS(=O)(=O)c1ccc(Nc2nc(NNC(=O)c3ccncc3)nc(Nc3ccccn3)n2)cc1
MIC [4]: 6 µg/mL (≈ 12.5 µM) | Activity [5]: Non-toxic | inhibition of growth at 0.0418 µM [14]: 90%

COc1ccc(Nc2nc(NNC(=O)c3ccncc3)nc(Nc3ccccn3)n2)cc1
MIC [4]: 4.11 µg/mL (≈ 9.57 µM) | Activity [5]: Non-toxic | inhibition of growth at 0.0211 µM [15]: 94%

O=C(NNc1nc(Nc2cccc([N+](=O)[O-])c2)nc(Nc2ccccn2)n1)c1ccncc1
inhibition of growth at 0.1109 µM [16]: 72%

Cc1ccc(Nc2nc(NNC(=O)c3ccncc3)nc(Nc3ccccn3)n2)cc1
inhibition of growth at 0.1127 µM [17]: 77%

O=C(NNc1nc(Nc2cccc(Cl)c2)nc(Nc2ccccn2)n1)c1ccncc1
inhibition of growth at 0.055 µM [18]: 82%

O=C(NNc1nc(Nc2ccc(Cl)cc2)nc(Nc2ccccn2)n1)c1ccncc1
MIC [4]: 5.91 µg/mL (≈ 13.6 µM) | inhibition of growth at 0.025 µM [19]: 94%

O=C(NNc1nc(Nc2ccc([N+](=O)[O-])cc2)nc(Nc2ccccn2)n1)c1ccncc1
inhibition of growth at 0.1211 µM [20]: 69%
